Earlier results as cited in patent publication US7183417B2, “Simple stereocontrolled synthesis of salinosporamide A” (priority 2004, dated 2007).

What was measured:
many tumor cell lines = conditions: read-out: in vitro cytotoxic activity IC50
proteasome = conditions: qualitative statement from the literature

Row | Structure (SMILES) | IC50 (many tumor cell lines) | proteasome inhibition (in words) (proteasome)
1 | C[C@@]12OC(=O)[C@]1([C@@H](O)[C@@H]1C=CCCC1)NC(=O)[C@@H]2CCCl [Salinosporamide A] | ≤ 10 nM | even more effective proteasome inhibitor than omuralide
2 | CC(C)[C@H](O)[C@@]12NC(=O)[C@H](C)[C@@H]1OC2=O [omuralide, reference compound] | – | potent inhibitor of proteasome function
